On the set-up of series [1]: species or system human. Conditions: prediction for high-clearance drugs, not studied here.
Series [2] can be described thus: Integrated population pharmacokinetic model. Conditions: for Decrease of clearance during TH compared with normothermia: 33.5°C vs 36.5°C; for PNA on Cl: increase of clearance per hour of postnatal age, first 5 days of life; for TEMP on Cl: reduction of clearance per °C of body temperature below 36.5°C. It counts as in vivo, human.
[3] abbreviates: interindividual variability in clearance, common eta.

Molecules are shown by their SMILES.

`CC[C@@H](C(N)=O)N1CCCC1=O` [levetiracetam]: the “Expected change of clearance with PNA” value in series [1] is reported as “clearance increases strongly with PNA”.
Consider `Cc1ncc2n1-c1ccc(Cl)cc1C(c1ccccc1F)=NC2` [Midazolam, midazolam], for which, in series [2], the “Decrease of clearance during TH compared with normothermia” value turned out to be 20.5%, the “PNA on Cl” value amounted to 0.540 %/h and the “TEMP on Cl” value was found to be 6.83 %/°C. Also, the “Correlation in clearance with Morphine” value in series [2] (setting [3]) is 62.2%.
Regarding `CC1(C)S[C@@H]2[C@H](NC(=O)[C@H](N)c3ccc(O)cc3)C(=O)N2[C@H]1C(=O)O` [Amoxicillin, amoxicillin], in series [2], the “PNA on Cl” value is on record as 1.23 %/h.
For `Oc1ncnc2[nH]ncc12` [allopurinol], the “Expected change of clearance with PNA” value in series [1] is given as “The same prediction can be made”.
Turning to `CC1(C)S[C@@H]2[C@H](NC(=O)Cc3ccccc3)C(=O)N2[C@H]1C(=O)O` [Benzylpenicillin, benzylpenicillin], in series [2], the “PNA on Cl” value worked out at 1.23 %/h. Further, in series [2] (setting [3]), the “Correlation in clearance with Amoxicillin” value is 35.5%, the “Correlation in clearance with HMG” value is recorded as 52.8%, the “Correlation in clearance with M6G” value is 27.4% and the “Correlation in clearance with Midazolam” value is 52.8%. Moreover, in series [2] (setting [3]), the “Correlation in clearance with Morphine” value is 58.6% and the “Correlation in clearance with OHM” value turned out to be 53.4%.
Regarding `OCc1ncc2n1-c1ccc(Cl)cc1C(c1ccccc1F)=NC2` [OHM, 1‐hydroxymidazolam], in series [2], the “Decrease of clearance during TH compared with normothermia” value is recorded as 20.5%, the “PNA on Cl” value is recorded as 0.540 %/h and the “TEMP on Cl” value turned out to be 6.83 %/°C. For the same molecule, in series [2] (setting [3]), the “Correlation in clearance with Midazolam” value stood at 57.0% and the “Correlation in clearance with Morphine” value is given as 63.3%.
As to `CCNCC(=O)Nc1c(C)cccc1C` [MEGX, monoethylglycinexylidide], the “PNA on Cl” value in series [2] stood at 1.23 %/h.
For `CNC(C)C1CCC(N)C(OC2C(N)CC(N)C(OC3OCC(C)(O)C(NC)C3O)C2O)O1` (stereo not shown) [Gentamicin, gentamicin], the “PNA on Cl” value in series [2] was 1.23 %/h. Also, in series [2] (setting [3]), the “Correlation in clearance with Amoxicillin” value was determined as 27.9%, the “Correlation in clearance with Benzylpenicillin” value is 38.8%, the “Correlation in clearance with HMG” value turned out to be 41.4% and the “Correlation in clearance with M3G” value stood at 23.4%. In addition, in series [2] (setting [3]), the “Correlation in clearance with M6G” value is 21.5%, the “Correlation in clearance with Midazolam” value came to 41.4%, the “Correlation in clearance with Morphine” value is on record as 45.9% and the “Correlation in clearance with OHM” value worked out at 41.8%.
For the molecule `N=C1N[C@H]2[C@H](CS[C@H]2CCCCC(=O)O)N1` [2‐iminobiotin], the “Expected change of clearance with PNA” value in series [1] was “The same prediction can be made”.
Take `CN1CC[C@]23c4c5ccc(O)c4O[C@H]2[C@@H](O[C@@H]2O[C@H](C(=O)O)[C@@H](O)[C@H](O)[C@H]2O)C=C[C@H]3[C@H]1C5` [M6G, morphine‐6‐glucuronide]: the “PNA on Cl” value in series [2] was 1.23 %/h. Besides, in series [2] (setting [3]), the “Correlation in clearance with M3G” value is listed as 94.8%, the “Correlation in clearance with Midazolam” value was 29.3%, the “Correlation in clearance with Morphine” value was 32.5% and the “Correlation in clearance with OHM” value is recorded as 29.6%.
Consider `CCC1(c2ccccc2)C(=O)NC(=O)NC1=O` [Phenobarbital, phenobarbital], for which the “PNA as covariate on clearance (in words)” value in series [2] (recovery of organ function) is “No effect of PNA was identified”.
For the molecule `CN1CC[C@]23c4c5ccc(O[C@@H]6O[C@H](C(=O)O)[C@@H](O)[C@H](O)[C@H]6O)c4O[C@H]2[C@@H](O)C=C[C@H]3[C@H]1C5` [M3G, morphine‐3‐glucuronide], in series [2], the “PNA on Cl” value was 1.23 %/h. In series [2] (setting [3]), the “Correlation in clearance with Midazolam” value is given as 31.9%, the “Correlation in clearance with Morphine” value is 35.4% and the “Correlation in clearance with OHM” value was 32.2%.
Consider `O=C(O)[C@H]1O[C@@H](OCc2ncc3n2-c2ccc(Cl)cc2C(c2ccccc2F)=NC3)[C@H](O)[C@@H](O)[C@@H]1O` [HMG, hydroxymidazolam glucuronide], for which the “PNA on Cl” value in series [2] came out at 1.23 %/h. Also, in series [2] (setting [3]), the “Correlation in clearance with M3G” value is reported as 31.9%, the “Correlation in clearance with M6G” value was determined as 29.3%, the “Correlation in clearance with Midazolam” value was determined as 56.4% and the “Correlation in clearance with Morphine” value is 62.6%. Moreover, the “Correlation in clearance with OHM” value in series [2] (setting [3]) is given as 57.0%.

The record behind these values is paper PMC7689752 (Clinical Pharmacology and Therapeutics, 2020).
